Measured values reported in patent EP0451834B1, “Alpha-mannosidase and fucosidase inhibitors” (MERRELL PHARMACEUTICALS INC., priority 1990, dated 1991).

Biological target: T1, α-Mannosidase (Jack bean) (Canavalia ensiformis, UniProt C0HJB3)
T1 sequence (C0HJB3 1-981): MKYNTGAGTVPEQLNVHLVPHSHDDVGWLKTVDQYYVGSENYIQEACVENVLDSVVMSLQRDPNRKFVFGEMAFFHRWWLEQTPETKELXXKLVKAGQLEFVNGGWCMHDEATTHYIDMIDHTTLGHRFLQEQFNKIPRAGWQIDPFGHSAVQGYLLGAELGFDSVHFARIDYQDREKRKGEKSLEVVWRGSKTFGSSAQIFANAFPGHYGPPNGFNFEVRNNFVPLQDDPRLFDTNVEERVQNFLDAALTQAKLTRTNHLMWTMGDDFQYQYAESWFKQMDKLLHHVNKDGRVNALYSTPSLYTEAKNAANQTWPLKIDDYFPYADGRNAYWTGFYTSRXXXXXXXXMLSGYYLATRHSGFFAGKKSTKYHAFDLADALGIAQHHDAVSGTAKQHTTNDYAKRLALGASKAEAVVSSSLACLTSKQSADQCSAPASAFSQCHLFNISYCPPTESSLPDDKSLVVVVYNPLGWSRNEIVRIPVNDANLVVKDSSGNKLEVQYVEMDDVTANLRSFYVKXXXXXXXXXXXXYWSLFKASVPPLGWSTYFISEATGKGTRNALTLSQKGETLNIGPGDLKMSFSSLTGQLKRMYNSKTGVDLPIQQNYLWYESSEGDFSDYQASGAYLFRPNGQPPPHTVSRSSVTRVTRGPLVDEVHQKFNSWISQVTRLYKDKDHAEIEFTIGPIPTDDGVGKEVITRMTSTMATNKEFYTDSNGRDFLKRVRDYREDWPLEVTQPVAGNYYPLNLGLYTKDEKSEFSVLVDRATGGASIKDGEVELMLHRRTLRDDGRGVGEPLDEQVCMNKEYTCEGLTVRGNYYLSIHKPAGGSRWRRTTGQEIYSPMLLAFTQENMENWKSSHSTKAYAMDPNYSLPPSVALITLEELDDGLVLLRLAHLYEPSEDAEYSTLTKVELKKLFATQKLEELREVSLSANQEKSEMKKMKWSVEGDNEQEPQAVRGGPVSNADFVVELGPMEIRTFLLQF
Test: Mannosidase screening assay (p-nitrophenyl-α-mannopyranoside substrate, absorbance at 405 nm)
Format: biochemical
Conditions: Jack bean enzyme, sodium acetate buffer pH 4.5, 37° for 30 min
Procedure: This can be demostrated by the ability of the compound to inhibit Jack bean mannosidase or mannosidase II as follows: Mannosidase Screening Assay (Kang, et al., Plant Physiol. 71:551-554 (1983)). Activities of mannosidase are first screened with Jack bean enzyme using p-nitrophenyl substrate as follows using a 96-well microplate. Total Rxn mix 200µl. • 1. Add compounds to be tested and dilute to 100µl with H2O. • 2. Add 25µl of 1M sodium acetate buffer pH 4.5 containing 10mM ZnCl2. • 3. Add 25µl of enzyme or approximately 0.05 µg protein. • 4. Mix and incubate at R.T. for 30 min. • 5. Add 50µl of 10 mM p-nitrophenyl-α-mannopyranoside in H2O to start the Rxn and incubate 37° for 30 min. Stop reaction by addition 100µl of 0.2M (2%) sodium carbonate solution (pH∼12). Read absorbance at 405 nm.

Question: `CN[C@@H]1[C@@H](O)[C@@H](O)[C@H](O)[C@H]1CO` [1,3β,5β,R=CH3, (1α,2β,3β,4α,5β)-Methyl[2,3,4-trihydroxy-5-(hydroxymethyl)cyclopentyl]amine] was tested. Which IC50 did it give?
Answer: 62.1 nM
